Source: ChEMBL document CHEMBL3885881, “DrugMatrix”

Species: Rattus norvegicus
Test: DrugMatrix - Regimen: Daily Repeat
Type: toxicity, organism-based, Sprague-Dawley
Design: regimen Daily Repeat, gender Male, age 6-8 weeks
Details: in vivo, po, route oral GAVAGE, vehicle .5 % CMC; for ABSOLUTE BASOPHIL / ABSOLUTE EOSINOPHIL / ABSOLUTE LYMPHOCYTE / ABSOLUTE MONOCYTE / ABSOLUTE SEGMENTED NEUTROPHIL / BASOPHIL / EOSINOPHIL / ERYTHROCYTE COUNT / HEMATOCRIT / HEMOGLOBIN / LEUKOCYTE COUNT / LYMPHOCYTE / MEAN CORPUSCULAR HEMOGLOBIN / MEAN CORPUSCULAR HEMOGLOBIN CONCENTRATION / MEAN CORPUSCULAR VOLUME / MONOCYTE / NEUTROPHIL / NUCLEATED RED BLOOD CELLS / PLATELET COUNT: tissue Blood; for ALANINE AMINOTRANSFERASE / ALBUMIN / ALKALINE PHOSPHATASE / ASPARTATE AMINOTRANSFERASE / BLOOD UREA NITROGEN / CARBON DIOXIDE / CHLORIDE / CHOLESTEROL / CREATINE PHOSPHOKINASE / CREATININE / GLUCOSE / LACTATE DEHYDROGENASE / LIPASE / PHOSPHORUS / POTASSIUM / SODIUM / TOTAL BILIRUBIN / TOTAL PROTEIN / URIC ACID: tissue Plasma
[1] = 2000 mg/kg, 120 h, dose level High, time 5 day
[2] = […], 72 h, dose 9.5 mg/Kg, dose level Low, time 3 day
[3] = […], 120 h, dose 9.5 mg/Kg, dose level Low, time 5 day

Q: With O=C1Nc2ccc(Cl)cc2C(c2ccccc2Cl)=NC1O (centres undefined) [LORAZEPAM] as the compound, how does the “ABSOLUTE BASOPHIL” value [1] read?
A: 0 CELLS/uL

Q: And the “ABSOLUTE EOSINOPHIL” value [1]?
A: 0 CELLS/uL

Q: And the “ABSOLUTE LYMPHOCYTE” value [1]?
A: 9298.5 CELLS/uL

Q: And the “ABSOLUTE MONOCYTE” value [1]?
A: 148 CELLS/uL

Q: What about the “ABSOLUTE SEGMENTED NEUTROPHIL” value [1] of the same compound?
A: 903.5 CELLS/uL

Q: What about the BASOPHIL [1] of the same compound?
A: 0%

Q: And the EOSINOPHIL [1]?
A: 0%

Q: What about the “ERYTHROCYTE COUNT” value [1] of the same compound?
A: 6.25 x10E6/uL

Q: And the HEMATOCRIT [1]?
A: 36.95%

Q: What about the HEMOGLOBIN [1] of the same compound?
A: 14.95 G/DL

Q: And the “LEUKOCYTE COUNT” value [1]?
A: 10.35 x10E3/uL

Q: And the LYMPHOCYTE [1]?
A: 89%

Q: What about the “MEAN CORPUSCULAR HEMOGLOBIN” value [1] of the same compound?
A: 23.95 pg

Q: And the “MEAN CORPUSCULAR HEMOGLOBIN CONCENTRATION” value [1]?
A: 40.5 G/DL

Q: And the “MEAN CORPUSCULAR VOLUME” value [1]?
A: 59.1 fL

Q: And the MONOCYTE [1]?
A: 1.5%

Q: And the NEUTROPHIL [1]?
A: 9.5%

Q: And the “NUCLEATED RED BLOOD CELLS” value [1]?
A: 0 /100WBC

Q: And the “PLATELET COUNT” value [1]?
A: 1267 x10E3/uL

Q: What about the “ALANINE AMINOTRANSFERASE” value [1] of the same compound?
A: 64.5 u/L

Q: And the ALBUMIN [1]?
A: 4.15 G/DL

Q: What about the “ALKALINE PHOSPHATASE” value [1] of the same compound?
A: 283.5 u/L

Q: And the “ASPARTATE AMINOTRANSFERASE” value [1]?
A: 92 u/L

Q: What about the “BLOOD UREA NITROGEN” value [1] of the same compound?
A: 21.5 mg/dL

Q: And the “CARBON DIOXIDE” value [1]?
A: 29.5 mmol/L

Q: What about the CHLORIDE [1] of the same compound?
A: 100.5 MEQ/L

Q: What about the CHOLESTEROL [1] of the same compound?
A: 76.5 mg/dL

Q: What about the “CREATINE PHOSPHOKINASE” value [1] of the same compound?
A: 814 u/L

Q: What about the CREATININE [1] of the same compound?
A: 0.18 mg/dL

Q: What about the GLUCOSE [1] of the same compound?
A: 150.5 mg/dL

Q: What about the “LACTATE DEHYDROGENASE” value [1] of the same compound?
A: 206 u/L

Q: And the LIPASE [1]?
A: 17.5 u/L

Q: And the PHOSPHORUS [1]?
A: 8.55 mg/dL

Q: What about the POTASSIUM [1] of the same compound?
A: 5.62 MEQ/L

Q: And the SODIUM [1]?
A: 145.4 MEQ/L

Q: And the “TOTAL BILIRUBIN” value [1]?
A: 0.1 mg/dL

Q: What about the “TOTAL PROTEIN” value [1] of the same compound?
A: 6.2 G/DL

Q: What about the “URIC ACID” value [1] of the same compound?
A: 0.65 mg/dL

Q: And the “ABSOLUTE BASOPHIL” value [2]?
A: 0 CELLS/uL

Q: And the “ABSOLUTE EOSINOPHIL” value [2]?
A: 223.33 CELLS/uL

Q: What about the “ABSOLUTE LYMPHOCYTE” value [2] of the same compound?
A: 14276.33 CELLS/uL

Q: What about the “ABSOLUTE MONOCYTE” value [2] of the same compound?
A: 155.67 CELLS/uL

Q: What about the “ABSOLUTE SEGMENTED NEUTROPHIL” value [2] of the same compound?
A: 1244.67 CELLS/uL

Q: What about the BASOPHIL [2] of the same compound?
A: 0%

Q: And the EOSINOPHIL [2]?
A: 1.33%

Q: And the “ERYTHROCYTE COUNT” value [2]?
A: 5.67 x10E6/uL

Q: And the HEMATOCRIT [2]?
A: 36.03%

Q: And the HEMOGLOBIN [2]?
A: 13.93 G/DL

Q: What about the “LEUKOCYTE COUNT” value [2] of the same compound?
A: 15.9 x10E3/uL

Q: What about the LYMPHOCYTE [2] of the same compound?
A: 89.67%

Q: And the “MEAN CORPUSCULAR HEMOGLOBIN” value [2]?
A: 24.57 pg

Q: And the “MEAN CORPUSCULAR HEMOGLOBIN CONCENTRATION” value [2]?
A: 38.67 G/DL

Q: What about the “MEAN CORPUSCULAR VOLUME” value [2] of the same compound?
A: 63.57 fL

Q: What about the MONOCYTE [2] of the same compound?
A: 1%

Q: And the NEUTROPHIL [2]?
A: 8%

Q: What about the “NUCLEATED RED BLOOD CELLS” value [2] of the same compound?
A: 0 /100WBC

Q: What about the “PLATELET COUNT” value [2] of the same compound?
A: 1298 x10E3/uL

Q: What about the “ALANINE AMINOTRANSFERASE” value [2] of the same compound?
A: 70 u/L

Q: And the ALBUMIN [2]?
A: 4.33 G/DL

Q: And the “ALKALINE PHOSPHATASE” value [2]?
A: 451.67 u/L

Q: And the “ASPARTATE AMINOTRANSFERASE” value [2]?
A: 99.67 u/L

Q: And the “BLOOD UREA NITROGEN” value [2]?
A: 17.33 mg/dL

Q: And the “CARBON DIOXIDE” value [2]?
A: 24 mmol/L

Q: And the CHLORIDE [2]?
A: 102.67 MEQ/L

Q: And the CHOLESTEROL [2]?
A: 65.67 mg/dL

Q: And the “CREATINE PHOSPHOKINASE” value [2]?
A: 485.67 u/L

Q: What about the CREATININE [2] of the same compound?
A: 0.22 mg/dL

Q: And the GLUCOSE [2]?
A: 158 mg/dL

Q: And the “LACTATE DEHYDROGENASE” value [2]?
A: 594 u/L

Q: What about the LIPASE [2] of the same compound?
A: 11 u/L

Q: What about the PHOSPHORUS [2] of the same compound?
A: 10.17 mg/dL

Q: What about the POTASSIUM [2] of the same compound?
A: 6.03 MEQ/L

Q: What about the SODIUM [2] of the same compound?
A: 142.63 MEQ/L

Q: And the “TOTAL BILIRUBIN” value [2]?
A: 0.13 mg/dL

Q: What about the “TOTAL PROTEIN” value [2] of the same compound?
A: 5.93 G/DL

Q: And the “URIC ACID” value [2]?
A: 1.43 mg/dL

Q: What about the “ABSOLUTE BASOPHIL” value [3] of the same compound?
A: 0 CELLS/uL

Q: What about the “ABSOLUTE EOSINOPHIL” value [3] of the same compound?
A: 0 CELLS/uL

Q: And the “ABSOLUTE LYMPHOCYTE” value [3]?
A: 12357 CELLS/uL

Q: And the “ABSOLUTE MONOCYTE” value [3]?
A: 82 CELLS/uL

Q: And the “ABSOLUTE SEGMENTED NEUTROPHIL” value [3]?
A: 461 CELLS/uL

Q: And the BASOPHIL [3]?
A: 0%

Q: And the EOSINOPHIL [3]?
A: 0%

Q: And the “ERYTHROCYTE COUNT” value [3]?
A: 6.11 x10E6/uL

Q: What about the HEMATOCRIT [3] of the same compound?
A: 37.87%

Q: And the HEMOGLOBIN [3]?
A: 14.63 G/DL

Q: And the “LEUKOCYTE COUNT” value [3]?
A: 12.9 x10E3/uL

Q: What about the LYMPHOCYTE [3] of the same compound?
A: 95.67%

Q: And the “MEAN CORPUSCULAR HEMOGLOBIN” value [3]?
A: 23.97 pg

Q: What about the “MEAN CORPUSCULAR HEMOGLOBIN CONCENTRATION” value [3] of the same compound?
A: 38.63 G/DL

Q: What about the “MEAN CORPUSCULAR VOLUME” value [3] of the same compound?
A: 62.07 fL

Q: And the MONOCYTE [3]?
A: 0.67%

Q: And the NEUTROPHIL [3]?
A: 3.67%

Q: And the “NUCLEATED RED BLOOD CELLS” value [3]?
A: 0 /100WBC

Q: And the “PLATELET COUNT” value [3]?
A: 1313 x10E3/uL

Q: What about the “ALANINE AMINOTRANSFERASE” value [3] of the same compound?
A: 62 u/L

Q: And the ALBUMIN [3]?
A: 4.13 G/DL

Q: What about the “ALKALINE PHOSPHATASE” value [3] of the same compound?
A: 373.33 u/L

Q: What about the “ASPARTATE AMINOTRANSFERASE” value [3] of the same compound?
A: 87.67 u/L

Q: What about the “BLOOD UREA NITROGEN” value [3] of the same compound?
A: 12 mg/dL

Q: What about the “CARBON DIOXIDE” value [3] of the same compound?
A: 25 mmol/L

Q: What about the CHLORIDE [3] of the same compound?
A: 104.33 MEQ/L

Q: And the CHOLESTEROL [3]?
A: 26.67 mg/dL

Q: And the “CREATINE PHOSPHOKINASE” value [3]?
A: 550.33 u/L

Q: And the CREATININE [3]?
A: 0.15 mg/dL

Q: What about the GLUCOSE [3] of the same compound?
A: 136.33 mg/dL

Q: What about the “LACTATE DEHYDROGENASE” value [3] of the same compound?
A: 527.67 u/L

Q: What about the LIPASE [3] of the same compound?
A: 9.33 u/L

Q: What about the PHOSPHORUS [3] of the same compound?
A: 10.97 mg/dL

Q: And the POTASSIUM [3]?
A: 6.04 MEQ/L

Q: What about the SODIUM [3] of the same compound?
A: 143.63 MEQ/L

Q: And the “TOTAL BILIRUBIN” value [3]?
A: 0.13 mg/dL

Q: And the “TOTAL PROTEIN” value [3]?
A: 5.8 G/DL

Q: And the “URIC ACID” value [3]?
A: 1.67 mg/dL
